Measurements published in PMC11732441, “Biased constitutive signaling of the G protein-coupled receptor GPR35 suppresses gut barrier permeability [drawing 1]” (The Journal of Biological Chemistry, 2024).

Key:
hGPR35a [1] = molecular target: T1, hGPR35a (Homo sapiens, UniProt Q9HC97); test: BRET G protein re-association (inverse agonism) in HEK293 cells; effect in HEPG2 cells lost on GPR35 knock-out; assay type: cell-based
T1 construct: gene GPR35; FLAG-hGPR35a (N-terminal FLAG tag); with Gα13/Gβ3/Gγ9
T1 sequence (Q9HC97 whole entry): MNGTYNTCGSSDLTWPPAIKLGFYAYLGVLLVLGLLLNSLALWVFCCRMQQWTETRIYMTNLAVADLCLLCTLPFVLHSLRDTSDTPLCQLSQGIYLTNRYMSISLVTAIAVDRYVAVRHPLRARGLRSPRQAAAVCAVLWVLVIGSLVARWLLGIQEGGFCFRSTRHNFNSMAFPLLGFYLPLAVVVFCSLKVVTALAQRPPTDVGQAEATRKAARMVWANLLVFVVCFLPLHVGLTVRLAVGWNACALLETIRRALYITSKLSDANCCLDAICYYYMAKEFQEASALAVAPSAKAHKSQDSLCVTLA
T1 sequence (Q14344 whole entry partner): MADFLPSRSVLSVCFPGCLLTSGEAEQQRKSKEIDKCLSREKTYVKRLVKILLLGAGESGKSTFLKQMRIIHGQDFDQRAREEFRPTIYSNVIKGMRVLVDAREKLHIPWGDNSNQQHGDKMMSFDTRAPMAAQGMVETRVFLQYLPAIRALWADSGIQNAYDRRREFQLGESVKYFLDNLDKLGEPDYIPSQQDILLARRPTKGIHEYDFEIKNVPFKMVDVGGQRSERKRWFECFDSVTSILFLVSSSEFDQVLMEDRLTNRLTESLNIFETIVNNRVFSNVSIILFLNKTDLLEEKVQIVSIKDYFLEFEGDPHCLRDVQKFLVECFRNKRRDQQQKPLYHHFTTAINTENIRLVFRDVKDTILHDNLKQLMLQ
T1 sequence (P16520 whole entry partner): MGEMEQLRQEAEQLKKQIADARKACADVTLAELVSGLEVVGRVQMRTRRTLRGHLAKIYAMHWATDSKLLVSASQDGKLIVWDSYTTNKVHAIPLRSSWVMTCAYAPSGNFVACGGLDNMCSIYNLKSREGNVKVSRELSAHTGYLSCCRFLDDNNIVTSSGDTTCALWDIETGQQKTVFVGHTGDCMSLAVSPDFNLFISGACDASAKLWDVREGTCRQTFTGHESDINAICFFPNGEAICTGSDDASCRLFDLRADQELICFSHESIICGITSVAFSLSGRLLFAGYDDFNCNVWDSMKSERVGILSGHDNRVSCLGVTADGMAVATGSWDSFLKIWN
T1 sequence (O14610 1-66 partner): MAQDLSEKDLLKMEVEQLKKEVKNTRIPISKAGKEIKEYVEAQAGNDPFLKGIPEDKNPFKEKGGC

hGPR35a [2] = molecular target: T1, hGPR35a; test: BRET G protein dissociation (TRUPATH-like) in Flp-In T-REx […] cells expressing FLAG-hGPR35a; assay type: cell-based

SMILES | BRET G protein re-association (inverse agonism) in HEK293 cells; effect in HEPG2 (hGPR35a [1]) | EC50 (hGPR35a [2]) [nM]
COC(=O)c1cnn(-c2ccc(F)cc2F)c1C=NNC(=S)NC(C)(C)C [CID-2745687] | the BRET signal induced by CID-2745687 increased with receptor plasmid amount | 
N#Cc1cc(NC(=O)C(=O)O)c(Cl)c(NC(=O)C(=O)O)c1 [lodoxamide] |  | 1.48
